The values that follow come from PubChem BioAssay AID463204 (Broad Institute, 2010).

This assay deals with S. cerevisiae Mot1-301 ts growth rescue, BacTiter-Glo ATP luminescence. As to the kind of experiment: growth rescue of Mot1-301 ts yeast, confirmation, SUMOylation pathway inhibitor project, whole organism, S. cerevisiae, Mot1-301 ts mutant, luminescence, dose retest (AID 463204).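 Note: growth at restrictive 38.5 degrees C of Mot1-301 OY566 strain; actives raise luminescence by restoring growth of the ts mutant at high temperature.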

The structures appear in SMILES notation. Active and inactive are the calls of the source.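 Rule for the calls: active = AC50 no more than ten times the top concentration tested, that is within one log above it; inconclusive = flat curve fit with activity between 30% and 70%, or invalid poor fit; inactive = AC50 beyond ten times the top tested dose.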 Where only a bound is given, the exact number is not on record here.

Regarding `COc1ccc(CN2CCNC(=O)C2CC(=O)NCc2cn3ccc(C)cc3n2)c(OC)c1` (stereo not drawn), the AC50 is > 42 µM (inactive). The same measure for `COc1ccc(OC)c(Cc2nnc(CCC(=O)NCc3ccsc3)o2)c1`: > 42 µM (inactive); for `CS(=O)(=O)NCc1ccc(C(=O)NC2CCCCC2)cc1`: > 42 µM (inactive). Take `O=C(c1ccc2c(=O)n(Cc3ccccc3Cl)c(=S)[nH]c2c1)N1CCOCC1`: the AC50 is > 42 µM (inactive). The same measure for `N#CCSc1nc2c(c(C3CC=CCC3)c1C#N)CCC2` (stereo not drawn): > 42 µM (inactive). With `COc1ccc(C2=NN(C(=S)Nc3ccccc3)C(c3ccccc3)C2)cc1` (stereo not drawn), the AC50 was > 42 µM (inactive). The value for `Cc1ccc(N(C(=O)CCl)C(C(=O)NC2CCCCC2)c2cccnc2)cc1C` (stereo not drawn) was 9.72 µM; that for `COc1ccc(-c2csc(NC(=O)CCS(=O)(=O)c3ccccc3)n2)c(OC)c1` was > 42 µM (inactive); that for `CC(C)C/C(=N/O)c1c[nH]c2ccccc12` was > 42 µM (inactive). Regarding `Cc1cc(C(F)(F)F)nc(SCC(=O)Nc2cc(C)on2)n1`, the AC50 is > 42 µM (inactive). Take `Cc1ccc(S(=O)(=O)N2CCOCC2)cc1NC(=O)COC(=O)CCC(=O)c1cccs1`: the AC50 is > 42 µM (inactive). Take `COc1ccccc1NC(=S)N(Cc1ccco1)Cc1cc2cccc(C)c2[nH]c1=O`: the AC50 is > 42 µM (inactive).

On to `Cc1ccc(-c2ccc(/C=N/n3cnnc3)o2)cc1`, for which the AC50 is > 42 µM (inactive). With `CC(C)c1onc(C(=O)N(C)Cc2ccccc2)c1[N+](=O)[O-]`, the AC50 was > 42 µM (inactive). On to `CN(C(=O)c1ccc(-c2nn(C)c(=O)c3ccccc23)cc1)C1CCCCC1`, for which the AC50 was > 42 µM (inactive). The value for `Cc1nn(CC(=O)Nc2ccccn2)c(C)c1[N+](=O)[O-]` was > 42 µM (inactive). As to `CC(SC#N)C(=O)C12CC3CC(CC(C3)C1)C2` (stereo not drawn), the half-maximal activity concentration (AC50) is 6.33 µM. In the case of `N=c1ncn(CC(O)CO)c2nc(N3CCOCC3)[nH]c12` (stereo not drawn), the AC50 was > 42 µM (inactive). Consider `CCCCCCCCCCOC(=O)Cn1c(COc2ccccc2OC)[n+](C)c2ccccc21`, for which the AC50 is 13.4 µM. Turning to `CCOC(=O)Cn1c(=O)n(Cc2ccco2)c(=O)c2ccc(C(=O)NCCc3ccccc3)cc21`, the AC50 is > 42 µM (inactive). In the case of `CCCCNC(=O)N1CCC(CCC(=O)N(C)Cc2ccccc2)CC1`, the AC50 is > 42 µM (inactive).

Regarding `Oc1cccc2ccc(/C=C/c3ccccc3Br)nc12`, the AC50 was > 42 µM (inactive).

Turning to `Cc1nc(-c2ccncc2)sc1C(=O)Nc1ccc(Br)cc1`, the AC50 is > 42 µM (inactive). Consider `CC(C)(C)C(=O)C(Cl)C(=O)Nc1ccccc1` (stereo not drawn), for which the AC50 was 3.35 µM. Consider `COc1ccc(/C=C2/SC(=O)N(NS(=O)(=O)c3ccccc3)C2=S)cc1OC`, for which the AC50 was > 42 µM (inactive).

In the case of `Cc1ccccc1Nc1cc(=O)oc2ccccc12`, the AC50 was > 42 µM (inactive). Take `Cc1ccc2nc(N/N=C/c3ccccc3F)nc(-c3ccccc3)c2c1`: the AC50 was > 42 µM (inactive). Take `O=S(=O)(c1ccc(C2CCCCC2)cc1)N1CCCC1`: the AC50 is > 42 µM (inactive). For the compound `CCCCOCCCNS(=O)(=O)Cc1ccccc1`, the AC50 is > 42 µM (inactive). Consider `O=C(O)/C=C/c1cccnc1`, for which the AC50 is > 42 µM (inactive). In the case of `CC1=C(C(N)=O)C(c2ccccn2)n2nc(SCc3ccccc3Cl)nc2N1` (stereo not drawn), the AC50 was > 42 µM (inactive).

Take `CCOc1ccc2nc(CN3CCN(Cc4ccccc4OCC)C(CCO)C3)ccc2c1` (stereo not drawn): the AC50 was > 42 µM (inactive). As to `O=c1cc(C(F)(F)F)c2sc(N3CCCCC3)nc2[nH]1`, the AC50 was > 42 µM (inactive). On to `CS(=O)(=O)Nc1ccccc1C(=O)NCCSCc1ccccc1`, for which the AC50 is > 42 µM (inactive). Take `CCCCn1c(N)c(N(Cc2ccccc2OC)C(=O)c2c(CC)noc2C)c(=O)[nH]c1=O`: the AC50 is > 42 µM (inactive). Take `CC(=O)c1cccc(NC(=O)CN(c2cccc(F)c2)S(C)(=O)=O)c1`: the AC50 is > 42 µM (inactive).

For `CCOC(=O)CCN(c1ccccc1)S(=O)(=O)c1ccc(-c2ccc(=O)[nH]n2)s1`, the AC50 was > 42 µM (inactive). The same measure for `CC(NC(=O)C1CCCN(S(=O)(=O)N2CCOCC2)C1)c1ccccc1` (stereo not drawn): > 42 µM (inactive).

Consider `Nc1ncnc2nc(SCC(=O)N3CCN(c4ccccc4)CC3)[nH]c12`, for which the AC50 was > 42 µM (inactive). The same measure for `Cc1c(C(=O)N2CCN(CCc3ccccc3)CC2)oc2ccccc12`: > 42 µM (inactive). The value for `COc1c(C)cc(S(=O)(=O)NC2CC(C)(C)NC(C)(C)C2)c(C)c1C` was > 42 µM (inactive). As for `CCN1CCCC1CN(Cc1cc2ccc(C)cc2[nH]c1=O)C(=S)Nc1ccc(OC)cc1OC` (stereo not drawn), the AC50 was > 42 µM (inactive). The same measure for `O=S(=O)(NCc1ccccc1)c1ccc(S(=O)(=O)N(Cc2ccccn2)Cc2ccco2)cc1`: > 42 µM (inactive). Regarding `COc1ccc2c(c1)OC[C@H]1[C@H]2N2C(=O)c3cc(OC)c(OC)cc3NC(=O)[C@@]2(C)[C@H]1c1ccccc1`, the AC50 was 5.49 µM.

Take `O=C(Nc1ccc(Cl)cc1)N1CCC(c2nc(-c3ccc(F)cc3)no2)CC1`: the AC50 is > 42 µM (inactive). As to `NC(=O)C1=C[C@@H](c2ccc(Br)cc2)C[C@@H](OCCCCO)O1`, the AC50 is > 42 µM (inactive). For `Cc1ccc(C)n1-n1cnc2sc3c(c2c1=O)CCCCC3`, the AC50 was > 42 µM (inactive).

As to `Cc1ccc(Nc2cc(C)nc3c(C)ccc([N+](=O)[O-])c23)cc1`, the AC50 was 13.8 µM. Regarding `COC(=O)c1cc2c(s1)-c1ccc(OC)cc1CC2`, the AC50 is > 42 µM (inactive). On to `Cc1ccc(NC(=O)Cn2nnc(C(=O)NCc3ccc4c(c3)OCO4)c2N)cc1`, for which the AC50 is > 42 µM (inactive). Turning to `Cc1ccc(NC(=O)CN2CCN(CCN=CC3=C(O)CC(C)(C)CC3=O)CC2)cc1`, the AC50 is > 42 µM (inactive). With `COc1ccc(CN2CC(=O)N(c3ccccc3C)C2=S)cc1OC`, the AC50 was > 42 µM (inactive). Regarding `COc1ccc(NC(=O)C(c2ccccc2)N2CCN(c3ccccn3)CC2)cc1Cl` (stereo not drawn), the AC50 is > 42 µM (inactive).

In the case of `Cc1ccc(C(=O)NCCCN2CCOCC2)cc1`, the AC50 was > 42 µM (inactive). With `CCOc1ccc(Br)cc1CNCCN1CCOCC1`, the AC50 is > 42 µM (inactive). `CCCCn1c(/N=C/c2ccc3c(c2)OCO3)nc2ccccc21`: the AC50 was > 42 µM (inactive). Consider `C=CCN1C(=O)/C(=C\c2ccc(C)cc2)N=C1SCC(=O)NCCC`, for which the AC50 was > 42 µM (inactive).

Turning to `O=C(NCCNc1ccc(Cl)cc1[N+](=O)[O-])c1ccccc1F`, the AC50 is > 42 µM (inactive). On to `Cc1nnc(SCC(=O)NC(C)(C)C)n1NCc1ccc(Cl)cc1`, for which the AC50 was > 42 µM (inactive). The value for `Cc1ccc(N(C(C)C(=O)O)S(=O)(=O)c2c(C)n[nH]c2C)cc1` (stereo not drawn) was > 42 µM (inactive); that for `COc1ccc(C(=O)CC(=O)C(=O)Nc2ccc(C)c(C)c2)cc1` was > 42 µM (inactive); that for `Cc1c(Cl)c([N+](=O)[O-])nn1CC(=O)NC12CC3CC(CC(C3)C1)C2` was > 42 µM (inactive). Regarding `Cc1cc(S(=O)(=O)N2CCCCC2CCNC(=O)C(=O)NCC2CCCO2)ccc1F` (stereo not drawn), the AC50 was > 42 µM (inactive). Regarding `COc1ccc(N2CCN(C(=O)CNC(=O)Cc3ccc(Cl)cc3)CC2)cc1`, the AC50 is > 42 µM (inactive). As for `O=C(OC1CCOC1=O)c1cccc(S(=O)(=O)Nc2ccc(F)cc2)c1` (stereo not drawn), the AC50 was > 42 µM (inactive). As to `NNc1nc2sc3c(c2c(=O)n1-c1ccccc1)CCCC3`, the AC50 was > 42 µM (inactive).

On to `O=C1c2ccccc2S(=O)(=O)N1Cc1cc(=O)n2ccsc2n1`, for which the AC50 is > 42 µM (inactive). With `CC1CCCC(C)N1/N=C/c1cc(Br)cc(Br)c1O` (stereo not drawn), the AC50 was 12.5 µM.

On to `O=C(c1ccc(Br)cc1)C(CN1CCOCC1)c1ccccc1` (stereo not drawn), for which the AC50 is 0.65 µM. `COc1ccc(NC(=O)c2ccc(-n3cncn3)c([N+](=O)[O-])c2)cc1`: the AC50 is > 21 µM (inactive). For the compound `COCC(C)n1c(SCC(=O)NNC(=O)c2ccccc2)nc2ccccc2c1=O` (stereo not drawn), the AC50 is > 42 µM (inactive). With `CCOC(=O)COc1nc(-c2ccc(C)cc2)cc(-c2ccco2)c1C#N`, the AC50 is > 42 µM (inactive). For `CN(C(=O)CSc1nc(-c2ccccc2)c(-c2ccccc2)o1)C1CCS(=O)(=O)C1` (stereo not drawn), the AC50 is > 42 µM (inactive). With `COc1ccc(NC2CCCN(C(=O)c3csc(C)n3)C2)cc1` (stereo not drawn), the AC50 is > 42 µM (inactive). The same measure for `C/C(=N/OCO/N=C(\C)c1ccccc1)c1ccccc1`: > 42 µM (inactive). In the case of `O=C(c1cc(F)ccc1F)C1CCCN(C(=O)c2ccc3nccnc3c2)C1` (stereo not drawn), the AC50 was > 42 µM (inactive). The same measure for `Cc1ccc2nc(/C(C#N)=C\c3cc(O)ccc3[N+](=O)[O-])[nH]c2c1`: > 42 µM (inactive); for `C/C(CC(=O)Nc1cccnc1)=N\NC(=O)C(C)Oc1ccc(Cl)cc1Cl` (stereo not drawn): > 42 µM (inactive).

In the case of `CC(C)(C)n1nnnc1C(c1ccc(Cl)cc1)N(Cc1cccnc1)Cc1ccco1` (stereo not drawn), the AC50 was 7.98 µM. With `CCNCCNC(=O)c1c(O)c2c([nH]c1=O)CCCC2`, the AC50 is > 42 µM (inactive). Turning to `CCCN(CC1CC1)C(=O)COc1ccccc1C(=O)NCc1ccccc1`, the AC50 is > 42 µM (inactive). For `COc1ccc(C(=O)O/N=C(\N)c2ccccc2)cc1OC`, the AC50 is > 42 µM (inactive). The same measure for `Cc1ccc(-c2[nH]ncc2CNCCc2cnn(-c3ccccc3)c2)cc1C`: > 42 µM (inactive); for `O=C(c1ccc(CS(=O)(=O)c2ccccc2)o1)N1CCOCC1`: > 42 µM (inactive). For `O=C(Nc1cccc(O)c1)C(Cc1ccccc1)N1C(=O)c2cccc3cccc(c23)C1=O` (stereo not drawn), the AC50 is > 42 µM (inactive). As for `c1ccc2c(c1)[nH]c1c(N3CCN(C4CCCCC4)CC3)ncnc12`, the AC50 is > 42 µM (inactive).

As for `CN(C)C(=O)CN1C(=O)c2cccc3cccc1c23`, the AC50 is > 42 µM (inactive). Turning to `CCC(CC)C(=O)N1CCCC(c2nc(-c3cccs3)no2)C1` (stereo not drawn), the AC50 was > 42 µM (inactive).

The term AC50 denotes the concentration giving half of the maximal activity seen.
